In PMC8624457, “Synthesis and Characterization of the Ethylene-Carbonate-Linked L-Valine Derivatives of 4,4-Dimethylcurcumin with Potential Anticancer Activities” (Molecules, 2021):
Where a name gives a salt, the structure may show the parent alone.

Legend:
[1] = tested on: NCI-H460 cells; assay: Intracellular uptake and bioconversion by LC-MS of cell extracts; type: in vitro ADME, Human; details: 10 μM
Experimental: To test our hypothesis, intracellular uptake of DMCU, 1-TFA, and 2-TFA were evaluated in NCI-H460 cells which cells were more sensitive to 1-TFA and 2-TFA than DMCU. The intracellular drug uptake was generally evaluated using a fluorescence microscope or flow cytometry. However, the extremely similar chromophores among DMCU, 1-TFA, and 2-TFA caused failure in detection of individual signals by these two methodologies and therefore drew us to develop a versatile LC-MS based analysis for the cellular uptake evaluations. To estimate the cellular uptake, NCI-H460 cells were treated with each compound for the indicated time periods and the cell extracts were then subjected to LC-MS analysis to determine the intracellular levels of DMCU, 1-TFA, and […] (Figure 4). In the treatment groups, the intracellular levels of each compound were detected by LC-MS where the amount of the compound was quantified by comparing the LC-MS signals of cellular extracts to the corresponding drug calibration curves. […] The maximal uptake levels of 1-TFA and DMCU were detected by 60 ng and 7 ng, respectively, at 60 min after treatment (Figure 4A,B). In 2-TFA treated group, the maximal cellular uptakes occurred during the time interval from 30 to 60 min after drug treatment and acquired 100 ng of DMCU, 12 ng of 1-TFA and 1.2 ng of 2-TFA (Figure 4A–C). […] The cellular uptake efficiency of H460 cells was then evaluated in terms of the total quantity of DMCU, 1-TFA, and 2-TFA. […]

[2] = Storage stability by HPLC purity / 1H NMR; type: physicochemical; details: room temperature, 6 days, fresh prepared 95.74%
Experimental: The procedures employed for the synthesis of targeted compounds 1 and 2 are depicted in Scheme 1. The required DMCU was prepared according to a three-step sequence reported in the literature. Initially, the commercially available Boc-L-valine 3 was reacted with 2-aminoethanol 4 in the presence of HOTT and Et3N to provide the amide product 5 in 82% yield. Under treatment with 4-nitrophenyl chloroformate and DIPEA, 5 was converted into 6 in 87% yield. One equivalent or excess amount of 6 was coupled with the deprotonated DMCU, formed in situ by the treatment of DMCU with Cs2CO3, to afford compound 7 and 8, respectively. Compound 7 and 8 thus obtained were subjected to Boc deprotection under the standard conditions to give 1 and 2, respectively. The preliminary stability test was performed with NMR by applying 2 as a typical example. […] Based on our previous experience in the synthesis of DMCU-HMP, the instability could be ascribed to the cross-hydrolysis of carbonate group by the terminal amino group of side chain. Salt formation reactions of the N-terminal L-valine were then carried out to cap the nucleophilic amino group. […] 2-TFA is also stable in DMSO solution (0.1 M concentration). After 6-day storage at room temperate, the purity of 2-TFA remained intact. Accordingly, a similar salt formation procedure was employed to produce the stable 1-TFA. Compound 1-TFA along with 2-TFA were then applied for the following evaluations.
Figure 2 The stability assessments of 2 and 2-TFA. (A) A clear solution of 2 in d-chloroform was subjected to a purity assessment by ^1H NMR spectroscopy at various storage times (fresh prepared (≤1 h); 1 day; 4 days). (B) The HPLC purity of fresh prepared 2-TFA was 95.74%. The fresh prepared 2-TFA in a solid state was stored at room temperature for another 6 days and then dissolved in water for HPLC analysis. The HPLC purity was decided as 95.55%. The fresh prepared 2-TFA was dissolved in DMSO and the resulting solution was stored at room temperature for another 6 days. HPLC purity of 2-TFA in the DMSO solution was 94.66%. […]

[3] = tested on: NCI-H460, NCI-H358 and A549 cell lines; assay: In vitro antiproliferative MTT assay, range over the NSCLC lines; type: cell-based; details: Homo sapiens, read-out: IC50 values in these cell lines
Experimental: Human NSCLC cell lines (NCI-H460, NCI-H358 and A549) were obtained from ATCC. All cell lines were grown in RPMI medium supplemented with 10% fetal bovine serum (FBS) and antibiotics and incubated at 37 °C in a humidified atmosphere with 5% CO2.
Antiproliferative activities to various compounds was assessed using MTT assay. In brief, 2000–5000 cells were seeded in each well of 96-well plates and incubated at 37 °C overnight before drug treatment. After a three-day drug treatment, MTT solution was added to each well and the plates were further incubated at 37 °C for 6 h. Measurement of cell viability was assessed by absorbance at 570 nm. The IC50 values for each drug were determined using CompuSyn software based on the median-effect principle and plot.

COc1cc(/C=C/C(=O)C(C)(C)C(=O)/C=C/c2ccc(OC(=O)OCCNC(=O)[C@@H](N)C(C)C)c(OC)c2)ccc1OC(=O)OCCNC(=O)[C@@H](N)C(C)C [Compound 2-TFA]
maximal cellular uptake: intracellular 2-TFA ([1]; 2-TFA-treated NCI-H460 cells, 30 to 60 min after drug treatment): 1.2 ng
HPLC purity after storage in DMSO solution ([2]; DMSO solution (0.1 M)): 94.66%
HPLC purity after storage as solid ([2]; solid state): 95.55%

COc1cc(/C=C/C(=O)C(C)(C)C(=O)/C=C/c2ccc(O)c(OC)c2)ccc1O [DMCU, 4,4-Dimethylcurcumin]
maximal uptake: intracellular DMCU ([1]; DMCU-treated NCI-H460 cells, at 1–2 h post-drug treatment, extract of approx. 1 × 10^6 cells): about 100 ng
IC50 [3]: 1620 to 2500 nM

COc1cc(/C=C/C(=O)C(C)(C)C(=O)/C=C/c2ccc(OC(=O)OCCNC(=O)[C@@H](N)C(C)C)c(OC)c2)ccc1O [Compound 1-TFA]
maximal uptake level: intracellular 1-TFA ([1]; 1-TFA-treated NCI-H460 cells, at 60 min after treatment): 60 ng
